Patent US20150125515A1, “NOVEL SP-B & SP-C PEPTIDES, SYNTHETIC LUNG SURFACTANTS, AND USE THEREOF” (UNIVERSITY OF ROCHESTER, priority 2012, published 2015)
Where no end group is shown, it is not given here.

Assays:
[1] = tested on: ventilated rabbits with ARDS induced by saline lavage; assay: Saline-lavage ventilated rabbit model of ARDS: arterial oxygenation and dynamic compliance; assay type: in vivo, New Zealand white rabbits; details: for Oxygenation and lung compliance after instillation (FIG. 1): SP-B mimics 3.0% by weight in 5:3:2 (weight ratio) DPPC:POPC:POPG; for Oxygenation and lung compliance after instillation (FIG. 1) / Oxygenation and lung compliance after instillation (FIG. 2): PBS pH 7.4, 35 mg/mL; for Oxygenation and lung compliance after instillation (FIG. 1) / relative order of pulmonary activity in terms of oxygenation / relative pulmonary activity with respect to lung compliance / Oxygenation and lung compliance after instillation (FIG. 2) / relative order of pulmonary activity in terms of oxygenation and lung compliance: intratracheal 100 mg/kg; for Oxygenation and lung compliance after instillation (FIG. 1) / relative order of pulmonary activity in terms of oxygenation / relative pulmonary activity with respect to lung compliance: over 120 min; for relative order of pulmonary activity in terms of oxygenation / relative pulmonary activity with respect to lung compliance: SP-B mimics 3.0% by weight in 5:3:2 DPPC:POPC:POPG; for Oxygenation and lung compliance after instillation (FIG. 2): SP-C mimics 3.0% by weight in 5:3:2 (weight ratio) DPPC:POPC:POPG; for relative order of pulmonary activity in terms of oxygenation and lung compliance: SP-C mimics 3.0% by weight in 5:3:2 DPPC:POPC:POPG
Experimental: Saline lavage produces surfactant deficiency, alveolar collapse and lung edema in ventilated rats and rabbits, and is a useful experimental model for human ARDS. A saline-lavage rabbit model for lung injury was thus used to compare synthetic surfactants, with lipids only as negative control. Restoration of lung function was assessed by serial monitoring of gas exchange and lung mechanics. Physiological activity results for selected synthetic SP-B peptides are shown below, and physiological activity results for selected synthetic SP-C peptides are included in following Example 8.
Animal experiments were performed following established protocols approved by the Animal Care and Use Committee at the Los Angeles Biomedical Research Institute at Harbor-UCLA Medical Center. […] In brief, experimental animals were commercially available young adult male New Zealand white rabbits whose respiratory function was followed during mechanical ventilation by measurements of serial arterial blood gases and pulmonary compliance over the first 2 hours after a standardized saline lavage protocol. For this timeframe of study, the model reflected a relatively pure state of surfactant insufficiency in animals with mature lungs. Saline lavage administration was performed after induction of anesthesia, insertion of a venous line in a marginal ear vein, endotracheal intubation and initiation of mechanical ventilation, muscle paralysis, and insertion of a carotid arterial line. Heart rate, arterial blood pressure and rectal temperature were measured continuously. After stabilization on the ventilator, saline lavage was performed with repeated intratracheal instillation and removal of 30 mL of normal saline until the PaO2 dropped below 100 mm Hg (average 3 lavages). Maintenance fluid was provided by a continuous infusion of Lactated Ringer's solution at a rate of 10 ml/kg/h. Edema fluid appearing in the trachea was removed by suctioning. When the PaO2 was stable at less than 100 mm Hg in saline lavaged animals, an experimental or control surfactant mixture was instilled into the trachea at a dose of 100 mg/kg body weight and a concentration of 35 mg/mL. The rabbits were ventilated using a Harvard volume-controlled animal ventilator (tidal volume 7.5 ml/kg, a positive end-expiratory pressure [PEEP] of 3 cm H2O, an inspiratory/expiratory ratio of 1:2, 100% oxygen, and a respiratory rate to maintain a PaCO2 at ˜40 mm Hg). Airway flow and pressures and tidal volume were monitored continuously with a pneumotachograph connected to the endotracheal tube and a pneumotach system. Arterial pH and blood gases were done every 15 minutes. Dynamic lung compliance was calculated by dividing tidal volume/kg body weight by changes in airway pressure (peak inspiratory pressure minus positive end-expiratory pressure) (mL/kg/cmH2O). Animals were sacrificed 2 h after surfactant administration with an overdose of pentobarbital. End-points are pulmonary gas exchange (arterial pH, PaCO2 and PaO2) and pulmonary mechanics (dynamic compliance, postmortem pressure-volume curves). Each treatment group consisted of n=4-9 animals.
The in vivo pulmonary activity of reduced MB DATK and SMB DATK was investigated in comparison with oxidized SMB and MB (positive controls) and lipids alone (negative control) over 120 min, following intratracheal instillation of these surfactants into ventilated rabbits with ARDS induced by saline lavage. Oxidized SMB and MB were used as positive controls, because these SP-B mimics previously indicated high in vivo surfactant activities equal to those of native, full-length porcine SP-B in ventilated rats with ARDS (Walther et al., “Critical Structural and Functional Roles for the N-terminal Insertion Sequence in Surfactant Protein B Analogs,” PLoS One 5:e8672 (2010), which is hereby incorporated by reference in its entirety). […]

[2] = Adsorption of surfactant compositions to the air-water interface (surface pressure vs time, Wilhelmy method); assay type: physicochemical
Experimental: Surface activity of synthetic peptide/lipid surfactant compositions was assessed by either or both of the following methods: (1) measurement of the adsorption of surfactant compositions to the air-water interface as a function of time, and (2) measurement of overall dynamic surface activity on a pulsating bubble surfactometer (general methodological details of these two experimental techniques are described by Notter, Lung Surfactants: Basic Science and Clinical Applications, Marcel Dekker, Inc, New York (2000), which is hereby incorporated by reference in its entirety).
In adsorption studies, a given surfactant mixture was injected at time zero beneath the surface of a stirred surfactant-free subphase, and surface pressure (defined as surface tension lowering below that of the pure subphase) was measured as a function of time from the force on a hanging platinum slide (“Wilhelmy” method). By definition, higher surface pressure corresponds to lower surface tension (Notter, Lung Surfactants: Basic Science and Clinical Applications, Marcel Dekker, Inc, New York (2000)).

## FPIPLPYCWLCRALIKRIQAMIDATKRMLPQLVCRLVLRCS (not fully specified (residues 8, 40); cysteine pairing not given here) [SMB DATK_Red]
[1]; FIG. 1, 3.0% by weight in 5:3:2 DPPC:POPC:POPG
  arterial oxygenation and dynamic compliance compared with reduced MB DATK: significantly higher
[1]
  Oxygenation and lung compliance after instillation (FIG. 1): increased quickly
  relative order of pulmonary activity in terms of oxygenation: reduced SMB DATK˜SMB_Ox˜MB_Ox>reduced MB DATK>Lipids alone
  relative pulmonary activity with respect to lung compliance: reduced SMB DATK>SMB_Ox˜reduced MB DATK˜MB_Ox>Lipids alone

## GIPSSPVHLKRLLIVVVVVELIVKVIVGALLMGL (SP-C SS Ion Lock + L E20/K24) [SP-Css ion-lock]
[2]; peptide 3% by weight with synthetic ester linked phospholipids 5:3:2 DPPC:POPC:POPG
  adsorption, result in words: substantial rapid adsorption
[1]
  Oxygenation and lung compliance after instillation (FIG. 2): increased quickly
  relative order of pulmonary activity in terms of oxygenation and lung compliance: SP-C33˜SP-Css ion-lock>SP-Cff>Lipids alone

## CWLCRALIKRIQAMIDATKRMLPQLVCRLVLRCS (not fully specified (residues 1, 33, bridges); cysteine pairing not given here) [MB DATK_Red]
[2]; Table 10 conditions, 3% by weight with 5:3:2 DPPC:POPC:POPG
  adsorption activity relative to that previously reported for MB without the DATK substitution: improved
[1]
  Oxygenation and lung compliance after instillation (FIG. 1): increased quickly
  relative order of pulmonary activity in terms of oxygenation: reduced SMB DATK˜SMB_Ox˜MB_Ox>reduced MB DATK>Lipids alone
  relative pulmonary activity with respect to lung compliance: reduced SMB DATK>SMB_Ox˜reduced MB DATK˜MB_Ox>Lipids alone

## IPSSPVHLKRLKLLLLLLLLILLLILGALLMGL (SP-c33) [previously reported SP-C peptide (Almlen et al. 2007)]
[1]
  Oxygenation and lung compliance after instillation (FIG. 2): rapidly increased
  relative order of pulmonary activity in terms of oxygenation and lung compliance: SP-C33˜SP-Css ion-lock>SP-Cff>Lipids alone
